# Measured values as given in ChEMBL document CHEMBL3885861, “Open TG-GATES”.
# Species on record: Rattus norvegicus
# Experiment: Open TG-GATES - Regimen: Daily Repeat
# Format: toxicity, organism-based, Sprague-Dawley
# Parameters: regimen Daily Repeat, gender Male, age 6 weeks
# Conditions: in vivo, po, 300 mg/kg, route gavage, dose level Middle; for APTT / Bas / Eos / Fbg / Hb / Ht / Lym / MCH / MCHC / MCV / Mono / Neu / PT / Plat / RBC / Ret / WBC: tissue Blood; for KIDNEY_L / KIDNEY_R / KIDNEY_TOTAL: tissue Kidney; for LIVER: tissue Liver; for A/G / ALP / ALT / AST / BUN / CRE / Ca / Cl / DBIL / GLC / IP / K / LDH / Na / PL / RALB / TBIL / TC / TG / TP / gamma-GTP: tissue Plasma
smiles,measurement,setting,value
CC(=O)[C@@]1(O)CC[C@H]2[C@@H]3C=C(Cl)C4=CC(=O)CC[C@]4(C)[C@H]3CC[C@@]21C [CHLORMADINONE],TERMINAL_BW,"72 h, time 3 day",228.1 g
same,APTT,"72 h, time 3 day",27.6 s
same,Bas,"72 h, time 3 day",0%
same,Eos,"72 h, time 3 day",1%
same,Fbg,"72 h, time 3 day",334.4 mg/dL
same,Hb,"72 h, time 3 day",14.1 g/dL
same,Ht,"72 h, time 3 day",42.3%
same,Lym,"72 h, time 3 day",76.8%
same,MCH,"72 h, time 3 day",20.6 pg
same,MCHC,"72 h, time 3 day",33.2%
same,MCV,"72 h, time 3 day",62 fL
same,Mono,"72 h, time 3 day",3.4%
same,Neu,"72 h, time 3 day",18.4%
same,PT,"72 h, time 3 day",14.8 s
same,Plat,"72 h, time 3 day",130.2 x10_4/uL
same,RBC,"72 h, time 3 day",684 x10_4/ul
same,Ret,"72 h, time 3 day",5.9%
same,WBC,"72 h, time 3 day",96.1 x10_2/uL
same,KIDNEY_L,"72 h, time 3 day",1 g
same,KIDNEY_R,"72 h, time 3 day",1 g
same,KIDNEY_TOTAL,"72 h, time 3 day",1.9 g
same,LIVER,"72 h, time 3 day",11 g
same,A/G,"72 h, time 3 day",1.2
same,ALP,"72 h, time 3 day",1623.2 IU/L
same,ALT,"72 h, time 3 day",51 IU/L
same,AST,"72 h, time 3 day",76.4 IU/L
same,BUN,"72 h, time 3 day",17.2 mg/dL
same,CRE,"72 h, time 3 day",0.2 mg/dL
same,Ca,"72 h, time 3 day",11 mg/dL
same,Cl,"72 h, time 3 day",106 meq/L
same,DBIL,"72 h, time 3 day",0 mg/dL
same,GLC,"72 h, time 3 day",194.2 mg/dL
same,IP,"72 h, time 3 day",7.5 mg/dL
same,K,"72 h, time 3 day",4.6 meq/L
same,LDH,"72 h, time 3 day",243.2 IU/L
same,Na,"72 h, time 3 day",141.4 meq/L
same,PL,"72 h, time 3 day",172.4 mg/dL
same,RALB,"72 h, time 3 day",3.2 g/dL
same,TBIL,"72 h, time 3 day",0.008 mg/dL
same,TC,"72 h, time 3 day",77 mg/dL
same,TG,"72 h, time 3 day",181.4 mg/dL
same,TP,"72 h, time 3 day",5.8 g/dL
same,gamma-GTP,"72 h, time 3 day",1.4 IU/L
same,TERMINAL_BW,"[…], time 7 day",257.8 g
same,TERMINAL_BW,"[…], time 14 day",297.5 g
same,TERMINAL_BW,"[…], time 28 day",346.1 g
same,APTT,"[…], time 7 day",29.5 s
same,Bas,"[…], time 7 day",0%
same,Eos,"[…], time 7 day",0.6%
same,Fbg,"[…], time 7 day",335.8 mg/dL
same,Hb,"[…], time 7 day",14.7 g/dL
same,Ht,"[…], time 7 day",42.9%
same,Lym,"[…], time 7 day",86%
same,MCH,"[…], time 7 day",20.8 pg
same,MCHC,"[…], time 7 day",34.2%
same,MCV,"[…], time 7 day",60.9 fL
same,Mono,"[…], time 7 day",2.4%
same,Neu,"[…], time 7 day",10.2%
same,PT,"[…], time 7 day",14.8 s
same,Plat,"[…], time 7 day",129.9 x10_4/uL
same,RBC,"[…], time 7 day",704.2 x10_4/ul
same,Ret,"[…], time 7 day",4.3%
same,WBC,"[…], time 7 day",119.7 x10_2/uL
same,APTT,"[…], time 14 day",28.4 s
same,Bas,"[…], time 14 day",0%
same,Eos,"[…], time 14 day",1%
same,Fbg,"[…], time 14 day",326.6 mg/dL
same,Hb,"[…], time 14 day",15.2 g/dL
same,Ht,"[…], time 14 day",44.7%
same,Lym,"[…], time 14 day",78%
same,MCH,"[…], time 14 day",19.3 pg
same,MCHC,"[…], time 14 day",34%
same,MCV,"[…], time 14 day",56.8 fL
same,Mono,"[…], time 14 day",2.6%
same,Neu,"[…], time 14 day",17.6%
same,PT,"[…], time 14 day",14.8 s
same,Plat,"[…], time 14 day",105.8 x10_4/uL
same,RBC,"[…], time 14 day",787.4 x10_4/ul
same,Ret,"[…], time 14 day",3.1%
same,WBC,"[…], time 14 day",84.6 x10_2/uL
same,APTT,"[…], time 28 day",28 s
same,Bas,"[…], time 28 day",0%
same,Eos,"[…], time 28 day",1%
same,Fbg,"[…], time 28 day",313.2 mg/dL
same,Hb,"[…], time 28 day",16.2 g/dL
same,Ht,"[…], time 28 day",46.4%
same,Lym,"[…], time 28 day",82.8%
same,MCH,"[…], time 28 day",18.9 pg
same,MCHC,"[…], time 28 day",34.9%
same,MCV,"[…], time 28 day",54 fL
same,Mono,"[…], time 28 day",2.2%
same,Neu,"[…], time 28 day",12.8%
same,PT,"[…], time 28 day",14.8 s
same,Plat,"[…], time 28 day",92.9 x10_4/uL
same,RBC,"[…], time 28 day",860 x10_4/ul
same,Ret,"[…], time 28 day",2%
same,WBC,"[…], time 28 day",105.1 x10_2/uL
same,KIDNEY_L,"[…], time 7 day",1 g
same,KIDNEY_R,"[…], time 7 day",1 g
same,KIDNEY_TOTAL,"[…], time 7 day",2.1 g
same,KIDNEY_L,"[…], time 14 day",1.1 g
same,KIDNEY_R,"[…], time 14 day",1.1 g
same,KIDNEY_TOTAL,"[…], time 14 day",2.2 g
same,KIDNEY_L,"[…], time 28 day",1.2 g
same,KIDNEY_R,"[…], time 28 day",1.2 g
same,KIDNEY_TOTAL,"[…], time 28 day",2.4 g
same,LIVER,"[…], time 7 day",12.6 g
same,LIVER,"[…], time 14 day",13.1 g
same,LIVER,"[…], time 28 day",13.4 g
same,A/G,"[…], time 7 day",1.1
same,ALP,"[…], time 7 day",1379.4 IU/L
same,ALT,"[…], time 7 day",53 IU/L
same,AST,"[…], time 7 day",70.8 IU/L
same,BUN,"[…], time 7 day",19.4 mg/dL
same,CRE,"[…], time 7 day",0.2 mg/dL
same,Ca,"[…], time 7 day",10.9 mg/dL
same,Cl,"[…], time 7 day",105.2 meq/L
same,DBIL,"[…], time 7 day",0 mg/dL
same,GLC,"[…], time 7 day",194.6 mg/dL
same,IP,"[…], time 7 day",7.4 mg/dL
same,K,"[…], time 7 day",4.6 meq/L
same,LDH,"[…], time 7 day",198.8 IU/L
same,Na,"[…], time 7 day",139.4 meq/L
same,PL,"[…], time 7 day",182.2 mg/dL
same,RALB,"[…], time 7 day",3.2 g/dL
same,TBIL,"[…], time 7 day",0 mg/dL
same,TC,"[…], time 7 day",91.2 mg/dL
same,TG,"[…], time 7 day",205.8 mg/dL
same,TP,"[…], time 7 day",6 g/dL
same,gamma-GTP,"[…], time 7 day",1.8 IU/L
same,A/G,"[…], time 14 day",1.1
same,ALP,"[…], time 14 day",1447.6 IU/L
same,ALT,"[…], time 14 day",44.2 IU/L
same,AST,"[…], time 14 day",67 IU/L
same,BUN,"[…], time 14 day",20 mg/dL
same,CRE,"[…], time 14 day",0.2 mg/dL
same,Ca,"[…], time 14 day",10.5 mg/dL
same,Cl,"[…], time 14 day",106.8 meq/L
same,DBIL,"[…], time 14 day",0 mg/dL
same,GLC,"[…], time 14 day",196.2 mg/dL
same,IP,"[…], time 14 day",6.9 mg/dL
same,K,"[…], time 14 day",4.5 meq/L
same,LDH,"[…], time 14 day",161.4 IU/L
same,Na,"[…], time 14 day",141.4 meq/L
same,PL,"[…], time 14 day",171.6 mg/dL
same,RALB,"[…], time 14 day",3.1 g/dL
same,TBIL,"[…], time 14 day",0.002 mg/dL
same,TC,"[…], time 14 day",83.8 mg/dL
same,TG,"[…], time 14 day",173 mg/dL
same,TP,"[…], time 14 day",6 g/dL
same,gamma-GTP,"[…], time 14 day",1.8 IU/L
same,A/G,"[…], time 28 day",1.1
same,ALP,"[…], time 28 day",1248.8 IU/L
same,ALT,"[…], time 28 day",61.6 IU/L
same,AST,"[…], time 28 day",76.6 IU/L
same,BUN,"[…], time 28 day",19.4 mg/dL
same,CRE,"[…], time 28 day",0.2 mg/dL
same,Ca,"[…], time 28 day",10.6 mg/dL
same,Cl,"[…], time 28 day",105.6 meq/L
same,DBIL,"[…], time 28 day",0 mg/dL
same,GLC,"[…], time 28 day",186.8 mg/dL
same,IP,"[…], time 28 day",6 mg/dL
same,K,"[…], time 28 day",4 meq/L
same,LDH,"[…], time 28 day",156.2 IU/L
same,Na,"[…], time 28 day",141.2 meq/L
same,PL,"[…], time 28 day",171 mg/dL
same,RALB,"[…], time 28 day",3.3 g/dL
same,TBIL,"[…], time 28 day",0.012 mg/dL
same,TC,"[…], time 28 day",89.2 mg/dL
same,TG,"[…], time 28 day",153.6 mg/dL
same,TP,"[…], time 28 day",6.3 g/dL
same,gamma-GTP,"[…], time 28 day",2.4 IU/L
